# Laboratory results taken from paper PMC6538733, “Chemical Constituents from Mentha haplocalyx Briq. (Mentha canadensis L.) and Their α-Glucosidase Inhibitory Activities” (Natural Products and Bioprospecting, 2019).
# pIC50: −log10 of the molar value.
# Biological target: α-glucosidase
# Test: pNPG hydrolysis assay, absorbance at […] nm
# Assay type: biochemical
row,pIC50,Structure (SMILES)
1,3.29,"C=C(C)[C@@H]1CC=C(C)[C@H](O[C@@H]2O[C@H](CO)[C@@H](O)[C@H](O)[C@H]2O)C1 [compound 3, (4R,6R)-carveol β-D-glucoside]"
2,3.04,"C=C(C)[C@@H]1CC=C(C)[C@@H](O[C@@H]2O[C@H](CO)[C@@H](O)[C@H](O)[C@H]2O)C1 [compound 4, (4R,6S)-carveol β-D-glucoside]"
3,4.08,"CC1=C(CC[C@H](C)O)C(C)(C)C[C@H](O[C@@H]2O[C@H](CO)[C@@H](O)[C@H](O)[C@H]2O)C1 [compound 11, (3R,9S)-megastigman-5-en-3,9-diol 3-O-β-D-glucopyranoside]"
